Measurements from paper PMC7586935 (Journal of Clinical Pharmacology, 2020).

Key:
healthy volunteers [1] = assay: ECG outlier analyses; type: in vivo, human; settings: moxifloxacin 400 mg, n = 18
[2] = system: QT/QTc interval of healthy volunteers; assay: Concentration-QTc
[3] = Plasma pharmacokinetics after single oral dose; type: in vivo; settings: human, oral, 400 mg
healthy volunteers [4] = assay: Safety assessment: treatment-emergent adverse events; type: in vivo, human; settings: moxifloxacin 400 mg, one subject
healthy volunteers [5] = assay: ECG morphological analyses; type: in vivo, human; settings: moxifloxacin 400 mg, n = 18

## COc1c(N2C[C@@H]3CCCN[C@@H]3C2)c(F)cc2c(=O)c(C(=O)O)cn(C3CC3)c12 [Moxifloxacin]
Healthy volunteers [1]
  Heart rate: Bradycardic outliers: 0 n (%)
  Heart rate: Tachycardic outliers: 1 (6) n (%)
  PR interval: Outliers: 0 n (%)
  QRS interval: Outliers: 0 n (%)
  QTcF >30‐60 ms inc change from baseline: 2 (11) n (%)
  QTcF >60 ms inc change from baseline: 0 n (%)
  QTcF New >480 ms: 0 n (%)
  QTcF New >500 ms: 0 n (%)
[2]; moxifloxacin 400 mg, mean Cmax 2758.3 ng/mL
  Predicted Mean Effect at Mean Cmax (placebo-corrected change from baseline QTcF, ΔΔQTcF): 15.2 ms
[2]; moxifloxacin plasma concentration, assay sensitivity
  Slope of placebo-adjusted change from baseline QTcF vs plasma concentration: 4.24 ms/[μg/mL]
[3]
  AUC: 24700 ± 5240 ng·h/mL
  Cmax: 2760 ± 559 ng/mL
  Tmax: 1 h
Healthy volunteers [4]
  Somnolence, frequency of subjects: 5.6%
Healthy volunteers [5]
  New ST‐segment depression changes: 1 (6) n (%)
  New ST‐segment elevation changes: 0 n (%)
  New atrial fibrillation: 0 n (%)
  New atrial flutter: 0 n (%)
  New second‐degree heart block: 0 n (%)
  New third‐degree heart block: 0 n (%)
